{"source": "patent USRE35886E", "about": "“Phosphonic acid derivatives and use thereof” (Takeda Chemical Industries, Ltd., priority 1991, dated 1998)", "note": "pIC50: −log10 of the molar value. Where a SMILES comes first, the peptide text is derived from it. Where no end group is shown, it is not given here. [ ]: non-standard residue; d: D form. The star is where a group is joined. Sta = CC(C)C[C@H](N)[C@@H](O)CC(=O)O; Isovaleryl = CC(C)CC(=O)*"}
{"tested_on": "membrane-bound endothelin-converting enzyme", "experiment": "not given", "settings": "FEBS Lett., 272, 166-170 (1990); cited from earlier work"}
{"compound": "CC(C)C[C@H](NP(=O)(O)O[C@@H]1O[C@@H](C)[C@H](O)[C@@H](O)[C@H]1O)C(=O)N[C@@H](Cc1c[nH]c2ccccc12)C(=O)O", "note": "[Phosphoramidone]", "inhibition of membrane-bound enzyme (in words)": "inhibited"}
{"biological_target": "T1, Endothelin-Converting Enzyme (Sus scrofa, UniProt A0A8W4FBH0)", "T1 construct": "1.0% Triton X-100 was added to solubilize enzyme activity; from tissue; host or cells: pig lung, solubilised 100,000×G membrane fraction", "T1 sequence (A0A8W4FBH0 1-751)": "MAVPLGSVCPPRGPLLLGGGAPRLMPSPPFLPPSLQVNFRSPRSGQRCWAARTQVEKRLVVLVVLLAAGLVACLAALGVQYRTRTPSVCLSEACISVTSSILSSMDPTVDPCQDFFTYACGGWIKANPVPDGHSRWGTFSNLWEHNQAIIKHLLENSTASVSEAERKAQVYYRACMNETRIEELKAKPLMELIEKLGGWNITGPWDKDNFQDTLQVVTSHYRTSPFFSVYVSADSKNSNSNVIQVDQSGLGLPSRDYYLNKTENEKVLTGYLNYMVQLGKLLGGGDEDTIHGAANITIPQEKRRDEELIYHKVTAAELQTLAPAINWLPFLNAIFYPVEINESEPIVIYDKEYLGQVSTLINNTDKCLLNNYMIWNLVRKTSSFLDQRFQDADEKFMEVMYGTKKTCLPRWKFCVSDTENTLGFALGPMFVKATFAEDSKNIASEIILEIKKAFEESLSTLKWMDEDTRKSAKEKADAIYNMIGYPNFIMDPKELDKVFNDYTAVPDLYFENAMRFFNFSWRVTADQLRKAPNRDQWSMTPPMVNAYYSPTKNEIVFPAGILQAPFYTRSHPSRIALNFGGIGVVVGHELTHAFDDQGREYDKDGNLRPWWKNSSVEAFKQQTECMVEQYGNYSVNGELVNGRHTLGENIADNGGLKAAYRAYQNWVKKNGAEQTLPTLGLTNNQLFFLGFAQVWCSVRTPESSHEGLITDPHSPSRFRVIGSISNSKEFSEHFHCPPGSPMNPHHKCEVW", "experiment": "Measurement of endothelin-converting enzyme inhibiting activity of phosphonic acid derivatives (pig big endothelin I (1-39) substrate, endothelin I sandwich enzyme immunoassay)", "format": "biochemical", "settings": "37° C., 1 hour, pH 7.2, pig lung solubilized membrane fraction", "method": "Measurement of Endothelin-Converting Enzyme Inhibiting Activity of Phosphonic Acid Amide Derivatives\nIn 1.5-ml centrifugal tube (BIO-BIK), 80 μl of 50 mM bis-Trispropane-hydrochloric acid buffer (pH 7.2) supplemented with 1.0 mg/ml bovine serum albumin, 0.1M sodium chloride, 1.0 mM phenylmethanesulfonyl fluoride (PMSF, Wako Pure Cnemical Industries), 1.0 μg/ml leupeptin (Peptide Institute Inc.), 1.0 μg/ml chymostatin (Peptide Institute Inc.), 1.0 μg/ml pepstatin A (Peptide Institute Inc.), 1.0 μM E-64 (Peptide Institute Inc.), 1.0 μm thiorphan (Sigma) and 1.0 μM angiotensin-converting enzyme inhibitor [CV-5975, Inada et al., Japanese Journal of Pharmacology, 47, 135-141 (1988)], 5 μl of a sample solution to be tested (an aqueous solution or an aqueous solution containing 2% dimethyl sulfoxide) or 5 μl of distilled water for the control plot, and 10 μl of an endothelin-converting enzyme sample prepared as described in the following reference example were placed. After standing at 37° C. for 30 minutes, 5 μl of a substrate solution [physiological phosphate buffer (PBS, containing 0.2 g of potassium chloride, 0.2 g of potassium dihydrogenphosphate, 8.0 g of sodium chloride and 1.14 g of disodium hydrogenphosphate in 1,000 ml of distilled water) supplemented with 1.0×10^-6 M pig big endothelin I (1-39) (Peptide Institute Inc.) and 1.0 mg/ml bovine serum albumin] was added thereto to initiate enzyme reaction. After reaction at 37° C. for 1 hour, the reaction mixture was boiled in boiling water for 5 minutes, thereby terminating the reaction: The resulting insoluble material was removed by centrifugation, and endothelin I (1-21) produced by the enzyme reaction contained in 10 μl of the supernatant was quantified by the endothelin I-specific sandwich enzyme immunoassay method already established [Suzuki et al., J. Immuno. Meth., 188, 245-250 (1989)], and compared with the amount of endothelin produced in the control plot to evaluate the enzyme inhibiting activity.\nAs endothelin-converting enzymes existing in organisms, two kinds of metalloenzymes different in enzymological properties are generally known. One exits in the cytoplasms, and the other is membrane-bound. The latter is characterized by that it is inhibited with phosphoramidon known as an inhibitor for metalloproteases [Matsumura et al., FEBS Lett., 272, 166-170 (1990)]. The endothelin-converting enzyme in the present invention means the membrane-bound enzyme of these two kinds of enzymes.\n(§1) About 500 g of the pig lung (of one pig) was sliced and disrupted in 2.0 liter of PBS supplemented with 0.05% sodium azide, 1.0 mM dithiothreitol, 1.0 mM PMSF, 1.0 μg/ml leupeptin, 1.0 μg/ml chymostatin, 1.0 μg/ml pepstatin A and 1.0 μM E-64, and then homogenized (1 minute×5 times) by a Polytron mixer ([…]). The centrifuged supernatant (240×G, 5 minutes) was further centrifuged at 10,000×G for 15 minutes, and the resulting supernatant was subjected to ultracentrifuge (100,000×G, 90 minutes) to obtain membrane fraction as a precipitate. To this precipitate, 1.0% Triton X-100 was added to solubilize enzyme activity. […] This was diluted to 2.0 mg of protein/ml to use for assaying the activity of enzyme inhibitors."}
{"compound": "CC(C)C[C@H](NP(=O)(O)Cc1cccc2ccccc12)C(=O)N[C@@H](Cc1c[nH]c2ccccc12)C(=O)O", "note": "[N-(1-Naphthylmethylphosphonyl)-Leu-Trp.2Na]", "pIC50": 6.70}
{"compound": "O=C(O)[C@H](Cc1c[nH]c2ccccc12)NC(=O)[C@H](CC1CCCCC1)NP(=O)(O)CCc1ccccc1", "note": "[N-(Phenethylphosphonyl)-Cha--Trp.2Na, N-(Phenethylphosphonyl)-Cha-Trp.2Na]", "pIC50": 6.00}
{"compound": "CC(C)[C@H](NP(=O)(O)CCc1ccccc1)C(=O)N[C@@H](Cc1c[nH]c2ccccc12)C(=O)O", "note": "[N-(Phenethylphosphonyl)-Val--Trp.2Na, N-(Phenethylphosphonyl)-Val-Trp.2Na]", "pIC50": 5.55}
{"compound": "CC(C)C[C@H](NP(=O)(O)Cc1ccc2ccccc2c1)C(=O)N[C@@H](Cc1c[nH]c2ccccc12)C(=O)O", "note": "[N-(2-Naphthylmethylphosphonyl)-Leu-Trp.2Na]", "pIC50": 6.00}
{"compound": "CCCC[C@H](NP(=O)(O)CCc1ccccc1)C(=O)N[C@@H](Cc1c[nH]c2ccccc12)C(=O)O", "note": "[N-(Phenethylphosphonyl)-Nle--Trp.2Na, N-(Phenethylphosphonyl)-Nle-Trp.2Na]", "pIC50": 5.85}
{"compound": "CC(C)CCP(=O)(O)N[C@@H](CC(C)C)C(=O)N[C@@H](Cc1c[nH]c2ccccc12)C(=O)O", "note": "[N-(Isoamylphosphonyl)-Leu--Trp.2Na, N-(Isoamylphosphonyl)-Leu-Trp.2Na]", "pIC50": 6.15}
{"compound": "CC(C)C[C@H](NP(=O)(O)CCc1ccccc1)C(=O)N[C@@H](Cc1c[nH]c2ccccc12)C(=O)O", "note": "[N-(Phenethylphosphonyl)-Leu--Trp.2Na, N-(Phenethylphosphonyl)-Leu-Trp.2Na]", "pIC50": 6.70}
{"compound": "CC(C)C[C@H](NP(=O)(O)CCc1ccccc1)C(=O)N[C@@H](Cc1ccccc1)C(=O)O", "note": "[N-(Phenethylphosphonyl)-Leu--Phe.2Na, N-(Phenethylphosphonyl)-Leu-Phe.2Na]", "pIC50": 5.24}
{"compound": "CC(C)C[C@H](NP(=O)(O)CCc1ccc2ccccc2c1)C(=O)N[C@@H](Cc1c[nH]c2ccccc12)C(=O)O", "note": "[N-[2-(2-Naphthyl)ethylphosphonyl]-Leu-Trp.2Na]", "pIC50": 7.00}
{"compound": "CC(C)C[C@H](NP(=O)(O)CCc1cccc2ccccc12)C(=O)N[C@@H](Cc1c[nH]c2ccccc12)C(=O)O", "note": "[N-[2-(1-Naphthyl)ethylphosphonyl]-Leu-Trp.2Na]", "pIC50": 6.40}
{"compound": "CC[C@H](C)[C@H](NP(=O)(O)CCc1ccccc1)C(=O)N[C@@H](Cc1c[nH]c2ccccc12)C(=O)O", "note": "[N-(Phenethylphosphonyl)-Ile--Trp.2Na, N-(Phenethylphosphonyl)-Ile-Trp.2Na]", "pIC50": 5.92}
{"compound": "O=C(O)[C@H](Cc1c[nH]c2ccccc12)NC(=O)[C@H](Cc1ccccc1)NP(=O)(O)CCc1ccccc1", "note": "[N-(Phenethylphosphonyl)-Phe--Trp.Na, N-(Phenethylphosphonyl)-Phe-Trp.2Na]", "pIC50": 6.30}
{"compound": "CC(C)C[C@H](NC(=O)[C@H](CC(C)C)NP(=O)(O)CCc1ccccc1)C(=O)O", "note": "[N-(Phenethylphosphonyl)-Leu--Leu.2Na, N-(Phenethylphosphonyl)-Leu-Leu.2Na]", "pIC50": 5.32}
{"biological_target": "T1, Endothelin-Converting Enzyme", "experiment": "Kinetic coefficient (Lineweaver-Burk plot)", "format": "biochemical", "settings": "substrate pig big endothelin, read-out: Michaelis coefficient", "method": "The Michaelis coefficient of this enzyme to pig big endothelin was calculated to be about 5×10^-6 M from the Lineweaver-Burk plot.", "units": {"Km": "µM"}}
{"compound": "pig big endothelin: substrate; pig big endothelin I (1-39) (Peptide Institute Inc.) (CSCSSLMDKECVYFCHLDIIWVNTPEHIVPYGLGSPSRS; ends and bridges not checked; cysteine pairing not given here; UniProt P09558 53-91, looked up, fragment)", "Km": "~5"}
{"biological_target": "T1, Endothelin-Converting Enzyme", "experiment": "Inhibition effect of various protease inhibitors on endothelin-converting enzyme", "format": "biochemical, pig", "settings": "Concentration 100 μM; read-out: Inhibiting Ratio (%)", "method": "as §1", "units": {"inhibition at 100 µM": "%"}}
{"compound": "CC(C)CC(=O)N[C@H](C(=O)N[C@H](C(=O)N[C@@H](CC(C)C)[C@@H](O)CC(=O)N[C@@H](C)C(=O)N[C@@H](CC(C)C)[C@@H](O)CC(=O)O)C(C)C)C(C)C", "note": "[Pepstatin] (Isovaleryl-VV[Sta]A[Sta]-OH)", "inhibition at 100 µM": 20}
{"compound": "CC(C)C[C@H](NC(=O)[C@@H](NC(=O)N[C@@H](Cc1ccccc1)C(=O)O)[C@@H]1CCN=C(N)N1)C(=O)N[C@H](C=O)Cc1ccccc1", "note": "[Chymostatin]", "inhibition at 100 µM": 2}
{"compound": "CC(C)C[C@H](NP(=O)(O)O[C@@H]1O[C@@H](C)[C@H](O)[C@@H](O)[C@H]1O)C(=O)N[C@@H](Cc1c[nH]c2ccccc12)C(=O)O", "note": "[Phosphoramidone]", "inhibition at 100 µM": 70}
{"compound": "CC(=O)N[C@@H](CC(C)C)C(=O)N[C@@H](CC(C)C)C(=O)N[C@H](C=O)CCCNC(=N)N", "note": "[Leupeptin]", "inhibition at 100 µM": 23}
{"compound": "CC(C)C[C@H](NC(=O)[C@H]1O[C@@H]1C(=O)O)C(=O)NCCCCN=C(N)N", "note": "[Example E-64]", "inhibition at 100 µM": 9}
{"biological_target": "T1, Endothelin-Converting Enzyme", "experiment": "Inhibition effect of various protease inhibitors on endothelin-converting enzyme", "format": "biochemical, pig", "settings": "Concentration 1000 μM", "method": "as §1", "units": {"Inhibiting Ratio (%)": "%"}}
{"compound": "O=S(=O)(F)Cc1ccccc1", "note": "[PMSF, phenylmethanesulfonyl fluoride]", "Inhibiting Ratio (%)": 32}
{"biological_target": "T1, Endothelin-Converting Enzyme", "experiment": "Inhibition effect of various protease inhibitors on endothelin-converting enzyme", "format": "biochemical, pig", "settings": "Concentration 1000 μM; read-out: Inhibiting Ratio (%)", "method": "as §1", "units": {"inhibition at 1000 µM": "%"}}
{"compound": "c1cnc2c(c1)ccc1cccnc12", "note": "[o-Phenanthroline]", "inhibition at 1000 µM": 92}
{"compound": "O[C@H](CS)[C@H](O)CS", "note": "(racemic) [Dithiothreitol]", "inhibition at 1000 µM": 96}
{"biological_target": "T1, Endothelin-Converting Enzyme", "experiment": "Inhibition effect of various protease inhibitors on endothelin-converting enzyme", "format": "biochemical, pig", "settings": "read-out: Inhibiting Ratio (%)", "method": "as §1", "units": {"inhibition at 1000 µM": "%"}}
{"compound": "O=C(O)CN(CCN(CC(=O)O)CC(=O)O)CC(=O)O", "note": "[Ethylenediaminetetraacetic acid]", "inhibition at 1000 µM": 70}
